# Data: patent US9801922B2, “Compositions and methods of treating cancer” (UNIVERSITY OF IOWA RESEARCH FOUNDATION, priority 2011, dated 2017)
# Tests used:
# [1] = tested on: Human thioredoxin-1 (hTrx-1); assay: Thioredoxin native redox western blot; assay type: cell-based; conditions: SUM159
# Description: FIG. 7: Human thioredoxin-1 (hTrx-1) native redox western blot analysis of BSO, DTPP and AUR treated SUM159. Asynchronously growing cultures of SUM159 were plated and treated as described in FIG. 1. Cells were harvested and scraped in PBS at 4° C. Whole cell homogenates were used for native gel redox western blot analysis of […].
# Thioredoxin Redox Western: The human thioredoxin-1 protein level was determined by Thioredoxin redox western. Approximately 2-3 million treated or untreated SUM159 cells were lysed in G-lysis buffer (50 mM Tris-HCl, pH 8.3, 3 mM EDTA, 6 M guanidine-HCl, 0.5% Triton X-100) containing 50 mM iodoacetic acid (pH 8.3). The lysate was incubated in the dark for thirty minutes. The lysates were then centrifuged in G-25 microspin columns (GE Healthcare). Protein was then quantified, from the eluent by performing a Bradford protein assay, as previously described (Bradford, M. M. A rapid and sensitive method for the quantitation of microgram quantities of protein utilizing the principle of protein-dye binding. Anal Biochem 72:248-254; 1976). Equal amounts of protein were then added to a 15% acrylamide native gel. The gel was then run at 100 V for approximately 1.5 h. The proteins contained in the gel were then transferred to a nitrocellulose membrane (BIORAD Labs), using a semi-dry transfer protocol. The nitrocellose membrane was then washed in PBST (Phosphate buffered saline with 0.1% Tween) before being incubated at 4 overnight with the primary antibody, 1:1000 goat anti-hTrx-1 (American Diagnostica, Inc.) in PBST with 2% BSA. […]
# [2] = tested on: SUM159 cells; assay: DHE oxidation (intracellular superoxide); assay type: cell-based, human
# Description: FIG. 10: DHE oxidation of BSO,DTPP and AUR exposed SUM159 cells. Asynchronously growing cultures of SUM159 were plated and treated as described in FIG. 1. Monolayer cultures were harvested and trypsinized, washed once with PBS and labeled 40 minutes with 5 μM DHE (in 0.1% DMSO) in PBS containing 5 mM pyruvate at 37° C. Each sample was then analyzed for the Mean fluorescence Intensity (MFI) of 10,000 cells by flow cytometry. Samples were assayed in triplicate; mean±1 SD of 2 experiment containing treatment dishes per group (n=6). *p<0.001 as compared to Control.
# Estimation of intracellular superoxide levels using Dihydroethidium (DHE) oxidation: Steady-state levels of superoxide were estimated using the fluorescent dyes, dihydroethidium (DHE) purchased from Molecular Probes (Eugene, Oreg.). Cells were plated and treated for as described earlier. On day 6, the cells were trypsinized and washed with 5 mM/L pyruvate containing PBS once then labeled with DHE ([…], in 0.1% DMSO, 40 min) at 37° C. After labeling, cells were kept on ice. Samples were analyzed using a FACScan flowcytometer (Becton Dickinson Immunocytometry System, INC., Mountain View, Calif.) (excitation 488 nm, emission 585 nm band-pass filter). The mean fluorescence intensity (MFI) of 10,000 cells was analyzed in each sample and corrected for autofluorescence from unlabeled cells. The MFI data was normalized to control levels.
# [3] = tested on: A375 melanoma cells; assay: MTT survival fraction analysis, A375; assay type: cell-based
# [4] = tested on: SUM159 cells; assay: CDCFH2 / CDCF probe labeling (intracellular hydroperoxides), SUM159; assay type: cell-based, human; conditions: oxidation-sensitive probe
# Description: (§1) FIGS. 5A-5D: CDCFH2 oxidation sensitive and CDCF oxidation insensitive probe labeling of BSO, DTPP, and AUR exposed SUM159 and HMECs cells. Asynchronously growing cultures of SUM159 (Panels A, B) and HMECs (Panes C, D) were plated and treated as described in FIG. 1. Monolayer cultures were harvested and trypsinized, washed once with PBS then labeled in PBS with either CDCFH2 (Panesl A, C) or CDCF (Panels B, D)(10 μg/mL, in 0.1% DMSO 15 minutes) at 37° C. Mean fluorescence intensity (MFI) of 10,000 cells was analyzed by flow cytometry. Samples were assayed in triplicate; Mean±1 SEM of 3 separate experiments containing 3 treatment dishes per group (n=9), *p<0.001 as compared to Control.
# FIG. 9: Catalase inhibitable CDCFH2 oxidation in BSO, DTPP, and AUR exposed SUM159 cells. […] Mean fluorescence intensity (MFI) of 10,000 cells was analyzed by flow cytometry. […]
# (§2) Measurement of Intracellular Hydroperoxides: Steady-state levels of hydroperoxides were estimated using the oxidation sensitive {5-(and-6)-carboxy-2′,7′-dichlorodihydrofluorescein diacetate, (CDCFH2)} and oxidation-insensitive {5-(and-6)-carboxy-2′,7′-dichlorofluorescein diacetate, (CDCF)} fluorescent dyes purchased from Molecular Probes. […] Samples were analyzed using a FACScan flowcytometer (Becton Dickinson Immuno-cytometry System, INC., Mountain View, Calif.) (excitation 488 nm, emission 530 nm band-pass filter). […]
# [5] = tested on: HMECs; assay: CDCFH2 / CDCF probe labeling (intracellular hydroperoxides), HMEC; assay type: cell-based, human; conditions: oxidation-insensitive probe
# Description: as §1
# as §2, with “Probes. Cells were plated and treated with BSO, DTPP and AUR as described above.” for “Probes.”, “filter). The MFI of 10,000 cells was analyzed in each sample and corrected for autofluorescence from unlabeled cells.” for “filter).”
smiles,measurement,setting,value
"CC[PH](CC)(CC)[Au][S][C@@H]1O[C@H](COC(C)=O)[C@@H](OC(C)=O)[C@H](OC(C)=O)[C@H]1OC(C)=O [AUR, S-triethylphosphinegold(I)-2,3,4,6-tetra-O-acetyl-1-thio-β-D-glucopyranoside]",increase of ratio of oxidized thioredoxin to total thioredoxin compared to control,[1],around 2 fold
same,increase of the ratio of oxidized Trx-1 to reduced Trx-1,[1]; 15 min AUR,2 fold
"CCCCS(=N)(=O)CCC(N)C(=O)O [BSO, L-buthionine-[S,R]-sulfoximine, reference compound]","ratio of oxidized thioredoxin to total thioredoxin, in words",[1],no ratio change
"CCCCCCCCCC[P+](c1ccccc1)(c1ccccc1)c1ccccc1 [DTPP, Decyl-Triphenylphosphonium]",increase of DHE oxidation,[2],1.5 fold
same,"cytotoxicity in the absence of BSO, in words",[3],intermediate cytotoxicity
same,increase in CDCFH2 oxidation compared to control,[4],2 fold
same,CDCF labeling signal relative to control,[5],2 fold
